Laboratory results: ChEMBL document CHEMBL1201862, “PubChem BioAssay data set” (2004)
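Where inhibition never reached the appropriate level, the endpoint shown equals the highest concentration tested. Otherwise, values were interpolated linearly from a five-concentration, 48-hour dose response in 96-well plates. GI50 = concentration required for 50% inhibition of growth.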 Active and inactive are the calls of the source. Rule as the data show it: active = GI50 up to about 1.1 µM and inactive = higher.

Assays:
Assay in all cases: NCI-60 cell line screen, 48 h
T47D = system: T47D
HL-60 = system: HL-60
IGROV-1 = system: IGROV-1
SK-MEL-28 = system: SK-MEL-28
NCI-H522 = system: NCI-H522
OVCAR-8 = system: OVCAR-8
OVCAR-3 = system: OVCAR-3
RPMI-8226 = system: RPMI-8226
NCI/ADR-RES = system: NCI/ADR-RES
COLO 205 = system: COLO 205
UACC-62 = system: UACC-62
LOX IMVI = system: LOX IMVI
NCI-H23 = system: NCI-H23
U-251 = system: U-251
OVCAR-5 = system: OVCAR-5
OVCAR-4 = system: OVCAR-4
HCT-116 = system: HCT-116
SF-539 = system: SF-539
NCI-H460 = system: NCI-H460
DU-145 = system: DU-145
SW-620 = system: SW-620
PC-3 = system: PC-3
BT-549 = system: BT-549
A549 = system: A549
Malme-3M = system: Malme-3M
SK-OV-3 = system: SK-OV-3
MCF7 = system: MCF7
HT-29 = system: HT-29
RXF 393 = system: RXF 393
SF-295 = system: SF-295
MDA-MB-435 = system: MDA-MB-435
SR = system: SR
HOP-92 = system: HOP-92
SN12C = system: SN12C
786-0 = system: 786-0
SNB-19 = system: SNB-19
HOP-62 = system: HOP-62
UACC-257 = system: UACC-257
M14 = system: M14
UO-31 = system: UO-31
A498 = system: A498
CAKI-1 = system: CAKI-1
NCI-H226 = system: NCI-H226
EKVX = system: EKVX
SK-MEL-5 = system: SK-MEL-5
KM12 = system: KM12
ACHN = system: ACHN
SK-MEL-2 = system: SK-MEL-2
SF-268 = system: SF-268
SNB-75 = system: SNB-75
MOLT-4 = system: MOLT-4
MDA-MB-231 = system: MDA-MB-231
K562 = system: K562
HCT-15 = system: HCT-15
Hs-578T = system: Hs-578T
CCRF-CEM = system: CCRF-CEM
TK-10 = system: TK-10
MDA-N = system: MDA-N
HCC 2998 = system: HCC 2998

With `CCN(CC)CCCNc1ccc([N+](=O)[O-])c2nc3ccc(OC)cc3c(N)c12` the GI50 (T47D) was > 10 µM (inactive), the GI50 (HL-60) was 1.94 µM (inactive) and the GI50 (IGROV-1) was 2.58 µM (inactive). The GI50 (SK-MEL-28) was > 10 µM (inactive), the GI50 (NCI-H522) was 2.82 µM (inactive) and the GI50 (OVCAR-8) was 1.95 µM (inactive). The GI50 (OVCAR-3) was > 4.46 µM (inactive), the GI50 (RPMI-8226) was 2 µM (inactive) and the GI50 (NCI/ADR-RES) was > 4.17 µM (inactive). For the same compound, the GI50 (COLO 205) was 1.34 µM (inactive), the GI50 (UACC-62) was > 10 µM (inactive) and the GI50 (LOX IMVI) was 1.7 µM (inactive). The GI50 (NCI-H23) was 2.29 µM (inactive), the GI50 (U-251) was > 10 µM (inactive) and the GI50 (OVCAR-5) was > 10 µM (inactive). The GI50 (OVCAR-4) was 1.92 µM (inactive), the GI50 (HCT-116) was 1.05 µM (active) and the GI50 (SF-539) was 1.85 µM (inactive). For the same compound, the GI50 (NCI-H460) was 1.82 µM (inactive), the GI50 (DU-145) was 3.21 µM (inactive) and the GI50 (SW-620) was 1.49 µM (inactive). For the same compound, the GI50 (PC-3) was 1.75 µM (inactive), the GI50 (BT-549) was 1.53 µM (inactive) and the GI50 (A549) was 1.86 µM (inactive). The GI50 (Malme-3M) was > 10 µM (inactive), the GI50 (SK-OV-3) was > 3.92 µM (inactive) and the GI50 (MCF7) was > 4.37 µM (inactive). For the same compound, the GI50 (HT-29) was 1.77 µM (inactive), the GI50 (RXF 393) was > 10 µM (inactive) and the GI50 (SF-295) was 1.82 µM (inactive). For the same compound, the GI50 (MDA-MB-435) was 1.62 µM (inactive), the GI50 (SR) was 1.51 µM (inactive) and the GI50 (HOP-92) was > 3.65 µM (inactive). The GI50 (SN12C) was 2.07 µM (inactive), the GI50 (786-0) was 1.44 µM (inactive) and the GI50 (SNB-19) was > 4.34 µM (inactive). For the same compound, the GI50 (HOP-62) was > 10 µM (inactive), the GI50 (UACC-257) was > 10 µM (inactive) and the GI50 (M14) was > 4.41 µM (inactive). For the same compound, the GI50 (UO-31) was > 5.58 µM (inactive), the GI50 (A498) was > 10 µM (inactive) and the GI50 (CAKI-1) was > 10 µM (inactive). For the same compound, the GI50 (NCI-H226) was > 10 µM (inactive), the GI50 (EKVX) was > 10 µM (inactive) and the GI50 (SK-MEL-5) was > 5.16 µM (inactive). The GI50 (KM12) was 1.57 µM (inactive), the GI50 (ACHN) was > 6.67 µM (inactive) and the GI50 (SK-MEL-2) was > 9.33 µM (inactive). The GI50 (SF-268) was 1.71 µM (inactive), the GI50 (SNB-75) was 1.93 µM (inactive) and the GI50 (MOLT-4) was 1.33 µM (inactive). The GI50 (MDA-MB-231) was 1.7 µM (inactive), the GI50 (K562) was 2.1 µM (inactive) and the GI50 (HCT-15) was 1.72 µM. The GI50 (Hs-578T) was 1.2 µM (inactive), the GI50 (CCRF-CEM) was 1.34 µM (inactive) and the GI50 (TK-10) was > 10 µM (inactive).
For `N[C@@H](CCC(=O)NCP(=O)(O)O)C(=O)O`, the GI50 (T47D) was > 100 µM (inactive), the GI50 (HL-60) was > 100 µM (inactive) and the GI50 (IGROV-1) was > 100 µM (inactive). For the same compound, the GI50 (SK-MEL-28) was > 100 µM (inactive), the GI50 (NCI-H522) was 18.2 µM (inactive) and the GI50 (OVCAR-8) was > 100 µM (inactive). For the same compound, the GI50 (OVCAR-3) was > 100 µM (inactive), the GI50 (RPMI-8226) was > 100 µM (inactive) and the GI50 (NCI/ADR-RES) was > 100 µM (inactive). For the same compound, the GI50 (COLO 205) was > 100 µM (inactive), the GI50 (UACC-62) was > 100 µM (inactive) and the GI50 (NCI-H23) was > 100 µM (inactive). For the same compound, the GI50 (U-251) was > 100 µM (inactive), the GI50 (OVCAR-5) was > 100 µM (inactive) and the GI50 (HCT-116) was > 100 µM (inactive). For the same compound, the GI50 (SF-539) was > 100 µM (inactive), the GI50 (NCI-H460) was > 100 µM (inactive) and the GI50 (SW-620) was > 100 µM (inactive). The GI50 (PC-3) was > 100 µM (inactive), the GI50 (BT-549) was > 100 µM (inactive) and the GI50 (A549) was > 100 µM (inactive). For the same compound, the GI50 (Malme-3M) was > 100 µM (inactive), the GI50 (MCF7) was > 100 µM (inactive) and the GI50 (MDA-N) was > 100 µM (inactive). The GI50 (HT-29) was > 100 µM (inactive), the GI50 (SF-295) was > 100 µM (inactive) and the GI50 (MDA-MB-435) was > 100 µM (inactive). The GI50 (SR) was > 100 µM (inactive), the GI50 (SN12C) was > 100 µM (inactive) and the GI50 (786-0) was > 100 µM (inactive). The GI50 (SNB-19) was > 100 µM (inactive), the GI50 (HOP-62) was > 100 µM (inactive) and the GI50 (UACC-257) was > 100 µM (inactive). The GI50 (HCC 2998) was > 100 µM (inactive), the GI50 (UO-31) was > 100 µM (inactive) and the GI50 (A498) was > 100 µM (inactive). The GI50 (EKVX) was > 100 µM (inactive), the GI50 (SK-MEL-5) was > 100 µM (inactive) and the GI50 (KM12) was > 100 µM (inactive). For the same compound, the GI50 (ACHN) was > 100 µM (inactive), the GI50 (SK-MEL-2) was > 100 µM (inactive) and the GI50 (MOLT-4) was > 100 µM (inactive). For the same compound, the GI50 (MDA-MB-231) was > 100 µM (inactive), the GI50 (K562) was > 100 µM (inactive) and the GI50 (HCT-15) was > 100 µM. The GI50 (Hs-578T) was > 100 µM (inactive) and the GI50 (TK-10) was > 100 µM (inactive).
For `O=C(COc1ccc(Cl)c(Cl)c1)Nc1ccc[n+](Cc2ccc(S(=O)(=O)F)c(Cl)c2)c1`, the GI50 (T47D) was > 100 µM (inactive), the GI50 (HL-60) was > 100 µM (inactive) and the GI50 (IGROV-1) was > 100 µM (inactive). For the same compound, the GI50 (SK-MEL-28) was > 100 µM (inactive), the GI50 (NCI-H522) was > 100 µM (inactive) and the GI50 (OVCAR-8) was > 100 µM (inactive). For the same compound, the GI50 (OVCAR-3) was > 100 µM (inactive), the GI50 (RPMI-8226) was 1.02 µM (active) and the GI50 (NCI/ADR-RES) was > 100 µM (inactive). For the same compound, the GI50 (COLO 205) was > 100 µM (inactive), the GI50 (UACC-62) was > 100 µM (inactive) and the GI50 (NCI-H23) was > 100 µM (inactive). For the same compound, the GI50 (U-251) was > 100 µM (inactive), the GI50 (OVCAR-5) was > 100 µM (inactive) and the GI50 (OVCAR-4) was > 100 µM (inactive). The GI50 (HCT-116) was > 100 µM (inactive), the GI50 (SF-539) was > 100 µM (inactive) and the GI50 (NCI-H460) was > 100 µM (inactive). For the same compound, the GI50 (DU-145) was > 100 µM (inactive), the GI50 (SW-620) was > 100 µM (inactive) and the GI50 (PC-3) was > 100 µM (inactive). For the same compound, the GI50 (BT-549) was > 100 µM (inactive), the GI50 (A549) was > 100 µM (inactive) and the GI50 (Malme-3M) was 51.2 µM (inactive). The GI50 (SK-OV-3) was > 100 µM (inactive), the GI50 (MCF7) was > 100 µM (inactive) and the GI50 (HT-29) was > 100 µM (inactive). The GI50 (RXF 393) was > 100 µM (inactive), the GI50 (SF-295) was > 100 µM (inactive) and the GI50 (MDA-MB-435) was > 100 µM (inactive). The GI50 (SR) was 40.6 µM (inactive), the GI50 (HOP-92) was > 100 µM (inactive) and the GI50 (SN12C) was 98.4 µM (inactive). The GI50 (786-0) was > 100 µM (inactive), the GI50 (SNB-19) was > 100 µM (inactive) and the GI50 (HOP-62) was > 100 µM (inactive). For the same compound, the GI50 (UACC-257) was > 100 µM (inactive), the GI50 (M14) was > 100 µM (inactive) and the GI50 (UO-31) was > 100 µM (inactive). For the same compound, the GI50 (A498) was > 100 µM (inactive), the GI50 (CAKI-1) was > 100 µM (inactive) and the GI50 (NCI-H226) was > 100 µM (inactive). For the same compound, the GI50 (EKVX) was > 100 µM (inactive), the GI50 (SK-MEL-5) was > 100 µM (inactive) and the GI50 (KM12) was > 100 µM (inactive). The GI50 (ACHN) was > 100 µM (inactive), the GI50 (SK-MEL-2) was > 100 µM (inactive) and the GI50 (SF-268) was > 100 µM (inactive). The GI50 (SNB-75) was > 100 µM (inactive), the GI50 (MOLT-4) was 25.4 µM (inactive) and the GI50 (MDA-MB-231) was 36.6 µM (inactive). The GI50 (K562) was > 100 µM (inactive), the GI50 (HCT-15) was > 100 µM and the GI50 (Hs-578T) was > 100 µM (inactive). The GI50 (TK-10) was > 100 µM (inactive).
